Biological target: T1, p300 HAT domain (residues 1287-1666) (Homo sapiens, UniProt Q09472)
T1 construct: The p300 HAT domain (residues 1287-1666) was expressed; His tag (N); made in house; host or cells: Escherichia coli
T1 sequence (Q09472 1287-1666): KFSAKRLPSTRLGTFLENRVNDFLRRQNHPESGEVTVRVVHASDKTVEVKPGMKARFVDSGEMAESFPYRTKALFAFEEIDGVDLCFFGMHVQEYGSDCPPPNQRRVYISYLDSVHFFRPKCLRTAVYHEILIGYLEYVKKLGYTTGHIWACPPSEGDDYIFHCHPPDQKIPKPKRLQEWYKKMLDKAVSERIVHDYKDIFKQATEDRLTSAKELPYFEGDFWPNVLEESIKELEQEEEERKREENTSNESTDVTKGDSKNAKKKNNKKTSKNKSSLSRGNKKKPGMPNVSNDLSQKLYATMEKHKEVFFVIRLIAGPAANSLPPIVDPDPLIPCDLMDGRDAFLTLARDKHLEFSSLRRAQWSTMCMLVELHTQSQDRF
Assay: P300 HAT SPA assay (scintillation proximity, acetylation of biotinylated H3(1-21) peptide)
Format: biochemical
Settings: 6 nM p300-HAT domain; average of at least 2 replicate titrations
Method: The activity of the compounds described herein as p300/CBP HAT inhibitors may be readily determined using a scintillation proximity assay (SPA) methodology (Udenfriend, S.; Gerber, L.; Nelson, N. Scintillation Proximity Assay: A Sensitive and Continuous Isotopic Method for Monitoring Ligand/Receptor and Antigen/Antibody Interactions. Anal. Biochem. 1987, 161, 494-500).
In a typical experiment the p300 HAT inhibitory activity of the compounds described herein was determined in accordance with the following experimental method.
The p300 HAT domain (residues 1287-1666) was expressed and purified with an N-terminal His tag from Escherichia coli cells. The expressed protein was purified by Ni2+affinity, followed by anion exchange chromatography. Appropriate fractions were pooled and buffer exchanged into 20 mM Hepes pH 7.5, 150 mM NaCl, and 1 mM TCEP.
Compounds of interest solubilized in DMSO were stamped in a Greiner black 384-well plate in a 10-point duplicate dose response using an Echo 550 (Labcyte). p300-HAT domain purified in-house (aa 1287-1666) was diluted to 6 nM in reaction buffer (50 mM Tris pH 8.0, 100 mM NaCl, 1 mM DTT, 0.069 mM Brij-35, 0.1 mM EDTA, 0.1 mg/mL BSA), combined with 4.14 μM AcCoA (Sigma-Aldrich) and 0.46 μM ^3H-AcCoA (PerkinElmer), and 12.5 μL added to each well and incubated for 30 min at RT. Reactions were initiated with 12.5 μL 2 μM biotinylated H3(1-21) peptide (New England Peptide) and run for 1 hr at RT, then quenched with 20 μL stop solution (200 mM Tris pH 8.0, 200 mM EDTA, 2M NaCl, 160 μM anacardic acid). 35 μL of the reaction volume was transferred to a 384-well streptavidin FlashPlate (PerkinElmer) using a Bravo liquid handler (Velocity 11) and incubated for 1.5 hr at RT. Plates were aspirated, washed with 95 μL wash buffer (15 mM Tris pH 8.5, 0.069 μM Brij-35), aspirated, sealed, and scintillation counts read on a Topcount (PerkinElmer). Data were analyzed in Genedata to determine inhibitor IC50 values.

| SMILES | IC50 [nM] |
| --- | --- |
| CC(=O)N1CC(Oc2ccc(NC(=O)C(NC[C@@H](C)c3ccc(C#N)cc3)c3ccccc3)nc2)C1 (single isomer, unassigned) [2 Isomer 2] | > 2000 |
| CN1CC(Oc2ccc(NC(=O)C(NCCc3ccc(Cl)cc3)c3ccccc3)nc2)CN(C)C1=O (single isomer, unassigned) [3 Isomer 1] | > 2000 |
| CN1CC(Oc2ccc(NC(=O)C(NCCc3ccc(Cl)cc3)c3ccccc3)nc2)CN(C)C1=O (single isomer, unassigned) [3 Isomer 2] | 117 |
| N#Cc1ccc(CCNC(C(=O)Nc2ccc(O[C@@H]3CCOC3)cn2)c2ccccc2)cc1 (single isomer, unassigned) [4 Isomer 1] | 91.4 |
| N#Cc1ccc(CCNC(C(=O)Nc2ccc(O[C@@H]3CCOC3)cn2)c2ccccc2)cc1 (single isomer, unassigned) [4 Isomer 2] | > 2000 |
| N#Cc1ccc(CCNC(C(=O)Nc2ccc(OC3COC3)cn2)c2ccccc2)cc1 (single isomer, unassigned) [6 Isomer 1] | 39.9 |
| N#Cc1ccc(CCNC(C(=O)Nc2ccc(OC3COC3)cn2)c2ccccc2)cc1 (single isomer, unassigned) [6 Isomer 2] | 1140 |
| O=C(Nc1ccc(OCCn2cccn2)cn1)C(NCCc1ccc(Cl)cc1)c1ccccc1 (single isomer, unassigned) [7 Isomer 1] | > 2000 |
| O=C(Nc1ccc(OCCn2cccn2)cn1)C(NCCc1ccc(Cl)cc1)c1ccccc1 (single isomer, unassigned) [7 Isomer 2] | 98.5 |
| Cn1cc(COc2ccc(NC(=O)C(NCCc3ccc(Cl)cc3)c3ccccc3)nc2)cn1 (single isomer, unassigned) [8 Isomer 1] | 1360 |
| CN1CC(Oc2ccc(NC(=O)C(NCCc3ccc(Cl)cc3)c3ccccc3)nc2)CCC1=O (single isomer, unassigned) [10 Isomer 1] | 94.2 |
| CN1CC(Oc2ccc(NC(=O)C(NCCc3ccc(Cl)cc3)c3ccccc3)nc2)CCC1=O (single isomer, unassigned) [10 Isomer 2] | > 2000 |
| CN1CC(Oc2ccc(NC(=O)C(NCCc3ccc(Cl)cc3)c3ccccc3)nc2)CCC1=O (single isomer, unassigned) [10 Isomer 3] | 45.4 |
| CN1CC(Oc2ccc(NC(=O)C(NCCc3ccc(Cl)cc3)c3ccccc3)nc2)CCC1=O (single isomer, unassigned) [10 Isomer 4] | > 2000 |
| CN1CCC(Oc2ccc(NC(=O)C(NCCc3ccc(Cl)cc3)c3ccccc3)nc2)CC1 (single isomer, unassigned) [11 Isomer 1] | 26.6 |
| CN1CCC(Oc2ccc(NC(=O)C(NCCc3ccc(Cl)cc3)c3ccccc3)nc2)CC1 (single isomer, unassigned) [11 Isomer 2] | > 2000 |
| CN1CCC(Oc2ccc(NC(=O)C(NCCc3ccc(C#N)cc3)c3ccccc3)nc2)C1=O (single isomer, unassigned) [12 Isomer 1] | 65 |
| CN1CCC(Oc2ccc(NC(=O)C(NCCc3ccc(C#N)cc3)c3ccccc3)nc2)C1=O (single isomer, unassigned) [12 Isomer 2] | 63 |
| CN1CCC(Oc2ccc(NC(=O)C(NCCc3ccc(C#N)cc3)c3ccccc3)nc2)C1=O (single isomer, unassigned) [12 Isomer 3] | > 2000 |
| CN1CCC(Oc2ccc(NC(=O)C(NCCc3ccc(C#N)cc3)c3ccccc3)nc2)C1=O (single isomer, unassigned) [12 Isomer 4] | > 2000 |
| CC(=O)N1CC[C@H](Oc2ccc(NC(=O)C(NCCc3ccc(C#N)cc3)c3ccccc3)nc2)C1 (single isomer, unassigned) [13 Isomer 1] | > 2000 |
| CC(=O)N1CC[C@H](Oc2ccc(NC(=O)C(NCCc3ccc(C#N)cc3)c3ccccc3)nc2)C1 (single isomer, unassigned) [13 Isomer 2] | 59.9 |
| CC(=O)N1CC[C@@H](Oc2ccc(NC(=O)C(NCCc3ccc(C#N)cc3)c3ccccc3)nc2)C1 (single isomer, unassigned) [14 Isomer 1] | 36.2 |

| SMILES | IC50 [nM] |
| --- | --- |
| CC(=O)N1CC[C@@H](Oc2ccc(NC(=O)C(NCCc3ccc(C#N)cc3)c3ccccc3)nc2)C1 (single isomer, unassigned) [14 Isomer 2] | > 2000 |
| CC(=O)N1CCC[C@H](Oc2ccc(NC(=O)C(NCCc3ccc(C#N)cc3)c3ccccc3)nc2)C1 (single isomer, unassigned) [15 Isomer 1] | 272 |
| CC(=O)N1CCC[C@H](Oc2ccc(NC(=O)C(NCCc3ccc(C#N)cc3)c3ccccc3)nc2)C1 (single isomer, unassigned) [15 Isomer 2] | > 2000 |
| CC(=O)N1CCC[C@@H](Oc2ccc(NC(=O)C(NCCc3ccc(C#N)cc3)c3ccccc3)nc2)C1 (single isomer, unassigned) [16 Isomer 1] | 164 |
| CC(=O)N1CCC[C@@H](Oc2ccc(NC(=O)C(NCCc3ccc(C#N)cc3)c3ccccc3)nc2)C1 (single isomer, unassigned) [16 Isomer 2] | > 2000 |
| CC(CNC(C(=O)Nc1ccc(Oc2cnn(C)c2)cn1)c1ccccc1)c1ccc(C#N)cc1 (single isomer, unassigned) [17 Isomer 1] | 33.7 |
| CC(CNC(C(=O)Nc1ccc(Oc2cnn(C)c2)cn1)c1ccccc1)c1ccc(C#N)cc1 (single isomer, unassigned) [17 Isomer 2] | > 2000 |
| CC(CNC(C(=O)Nc1ccc(Oc2cnn(C)c2)cn1)c1ccccc1)c1ccc(C#N)cc1 (single isomer, unassigned) [17 Isomer 3] | > 2000 |
| CC(CNC(C(=O)Nc1ccc(Oc2cnn(C)c2)cn1)c1ccccc1)c1ccc(C#N)cc1 (single isomer, unassigned) [17 Isomer 4] | > 2000 |
| CC(Oc1ccc(NC(=O)C(NCCc2ccc(C#N)cc2)c2ccccc2)nc1)c1cnn(C)c1 (single isomer, unassigned) [18 Isomer 1] | 311 |
| CC(Oc1ccc(NC(=O)C(NCCc2ccc(C#N)cc2)c2ccccc2)nc1)c1cnn(C)c1 (single isomer, unassigned) [18 Isomer 2] | 209 |
| CC(Oc1ccc(NC(=O)C(NCCc2ccc(C#N)cc2)c2ccccc2)nc1)c1cnn(C)c1 (single isomer, unassigned) [18 Isomer 3] | > 2000 |
| CC(Oc1ccc(NC(=O)C(NCCc2ccc(C#N)cc2)c2ccccc2)nc1)c1cnn(C)c1 (single isomer, unassigned) [18 Isomer 4] | > 2000 |
| N#Cc1ccc(CCNC(C(=O)Nc2ccc(OCCN3CCOC3=O)cn2)c2ccccc2)cc1 (single isomer, unassigned) [19 Isomer 1] | 56.6 |
| N#Cc1ccc(CCNC(C(=O)Nc2ccc(OCCN3CCOC3=O)cn2)c2ccccc2)cc1 (single isomer, unassigned) [19 Isomer 2] | > 2000 |
| CC(CNC(C(=O)Nc1ccc(OC2CCN(C(=O)C3CC3)CC2)cn1)c1ccccc1)c1ccc(C#N)cc1 (single isomer, unassigned) [20 Isomer 1] | > 2000 |
| CC(CNC(C(=O)Nc1ccc(OC2CCN(C(=O)C3CC3)CC2)cn1)c1ccccc1)c1ccc(C#N)cc1 (single isomer, unassigned) [20 Isomer 2] | 26.7 |
| CC(CNC(C(=O)Nc1ccc(OC2CN(C(=O)C3CC3)C2)cn1)c1ccccc1)c1ccc(C#N)cc1 (single isomer, unassigned) [21 Isomer 2] | > 2000 |
| Cc1cnc(Oc2ccc(NC(=O)C(NCCc3ccc(C#N)cc3)c3ccccc3)nc2)nc1 (single isomer, unassigned) [22 Isomer 1] | > 2000 |
| Cc1cnc(Oc2ccc(NC(=O)C(NCCc3ccc(C#N)cc3)c3ccccc3)nc2)nc1 (single isomer, unassigned) [22 Isomer 2] | 1390 |
| CC(=O)N1CC(Oc2ccc(NC(=O)C(NCC(C)c3ccc(C#N)cc3)c3cccc(F)c3)nc2)C1 (single isomer, unassigned) [23 Isomer 2] | 965 |
| CC(=O)N1CC(Oc2ccc(NC(=O)C(NCC(C)c3ccc(C#N)cc3)c3cnn(C)c3)nc2)C1 (single isomer, unassigned) [24 Isomer 2] | 578 |
| CC(=O)N1CC(Oc2ccc(NC(=O)C(NCC(C)c3ccc(C#N)cc3)c3cnn(C)c3)nc2)C1 (single isomer, unassigned) [24 Isomer 3] | > 2000 |
